Article PMC3132655, “Synthesis and In Vitro Evaluation of Novel Nortropane Derivatives as Potential Radiotracers for Muscarinic M2 Receptors” (International Journal of Molecular Imaging, 2011)
Several values for one entry are separate records, joined by “and”; a condition that tells them apart may be missing. Identical values can stand only once. Like-named read-outs stand apart in the source and are kept apart here.

How the values were obtained:
[1] = target: T1, recombinant human muscarinic M2 receptor (Homo sapiens, UniProt P08172); test: competitive binding against [3H]NMS, CHO cell membranes, M2; conditions: for affinity for M2 (in words): [3H]NMS competition
T1 construct: purchased Perkin Elmer, Waltham, USA; host or cells: CHO cells (membrane suspensions)
T1 sequence (P08172 1-466): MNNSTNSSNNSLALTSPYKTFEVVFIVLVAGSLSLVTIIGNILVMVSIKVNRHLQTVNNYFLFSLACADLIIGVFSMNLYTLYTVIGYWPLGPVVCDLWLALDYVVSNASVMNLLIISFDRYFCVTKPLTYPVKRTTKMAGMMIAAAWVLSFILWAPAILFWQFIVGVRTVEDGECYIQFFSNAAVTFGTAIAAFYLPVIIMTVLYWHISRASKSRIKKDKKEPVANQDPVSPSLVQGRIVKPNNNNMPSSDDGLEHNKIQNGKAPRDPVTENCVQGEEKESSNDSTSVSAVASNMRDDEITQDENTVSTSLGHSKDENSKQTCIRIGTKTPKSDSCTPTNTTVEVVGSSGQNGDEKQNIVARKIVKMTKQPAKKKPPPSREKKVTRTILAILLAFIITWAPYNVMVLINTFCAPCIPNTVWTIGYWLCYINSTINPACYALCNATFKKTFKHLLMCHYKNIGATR
Protocol: (§1) Assays were performed on membrane suspensions from CHO cells expressing either the recombinant human muscarinic M1, M2, or the M3 receptor subtype (Perkin Elmer, Waltham, USA).
(§2) In the competitive binding assays, incubation buffer contained 50 mM TRIS-HCl, 10 mM MgCl2, and 1 mM EDTA (pH 7.4 at 4°C). The assays were incubated during 60 min (M1 or M2 receptor subtypes) or 120 min (M3 receptor subtypes) at 27°C. Nonspecific binding was determined using atropine as a competitor in a concentration of 1 μM.
(§3) In the first series of competitive binding assays, the 6β-4′-iodobenzyl ether (5b) and the 6β-4′-iodobenzoate ester (5c) of 6β-nortropinol, as well as the lead compound 6β-acetoxynortropane (5a), were tested. Protein concentrations for undiluted receptor subtype suspensions were 1.2 mg/mL (M1), 4.3 mg/mL (M2), and 2.0 mg/mL (M3). […] Final competitor concentrations ranged from 1.0 · 10^−10 M to 1.0 · 10^−4 M. After incubation, the reaction was rapidly terminated by vacuum filtration over GF/C glass fiber filters, presoaked in 0.3% polyethylenimine (Sigma-Aldrich, Munich, Germany), and washed 5 times with 1 mL of ice-cold buffer. Filters were placed in vials with 10 mL of scintillation fluid (Ultima Gold, Perkin Elmer, Waltham, USA) and counted in a liquid scintillation counter (Tri-Carb 2900 TR Liquid Scintillation Analyzer, Packard. Software version: 3100).
(§4) In the second series of competitive binding assays, derivative 10a and 10b and the lead compound 6β-acetoxynortropane (5a) were tested. In this series, the protein concentrations for undiluted receptor subtype suspensions were 0.6 mg/mL (M1), 7.5 mg/mL (M2), and 1.5 mg/mL (M3). […] Final competitor concentrations ranged from 1.0 · 10^−10 M to 1.0 · 10^−5 M. After incubation, the assays were filtrated over UniFilter 96 GF/C filter plates, presoaked in 0.3% polyethylenimine (Sigma-Aldrich, Munich, Germany), and washed 9 times with 200 μL of ice-cold buffer. 30 μL of scintillation fluid (MicroScint, Perkin Elmer, Waltham, USA) was added, and the filter plates were counted in a liquid scintillation counter (TopCount 5.0 Liquid Scintillation Analyzer, Perkin Elmer, Waltham, USA).

[2] = target: T2, recombinant human muscarinic M1 receptor (Homo sapiens, UniProt P11229); test: competitive binding against [3H]NMS, CHO cell membranes, M1; conditions: for selectivity ratio for M2 over M1: ratio of Ki, [3H]NMS; for affinity for M1 (in words): [3H]NMS competition
T2 construct: purchased Perkin Elmer, Waltham, USA; host or cells: CHO cells (membrane suspensions)
T2 sequence (P11229 whole entry): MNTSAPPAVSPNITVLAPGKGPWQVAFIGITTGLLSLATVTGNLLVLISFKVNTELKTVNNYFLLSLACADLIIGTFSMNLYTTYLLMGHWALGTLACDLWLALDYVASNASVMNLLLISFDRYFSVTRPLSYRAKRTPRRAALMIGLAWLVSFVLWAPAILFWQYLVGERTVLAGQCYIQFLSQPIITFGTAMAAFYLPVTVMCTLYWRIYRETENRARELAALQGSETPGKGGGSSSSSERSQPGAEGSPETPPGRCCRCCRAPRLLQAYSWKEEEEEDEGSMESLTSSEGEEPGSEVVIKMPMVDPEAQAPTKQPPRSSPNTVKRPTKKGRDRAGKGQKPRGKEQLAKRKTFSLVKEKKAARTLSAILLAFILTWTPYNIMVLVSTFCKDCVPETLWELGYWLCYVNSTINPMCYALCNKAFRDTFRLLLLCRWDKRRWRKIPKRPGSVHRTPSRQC
Protocol: as §1, §2, §3, §4

[3] = target: T3, recombinant human muscarinic M3 receptor (Homo sapiens, UniProt P20309); test: competitive binding against [3H]NMS, CHO cell membranes, M3; conditions: for selectivity ratio for M2 over M3: ratio of Ki, [3H]NMS; for affinity for M3 (in words): [3H]NMS competition
T3 construct: purchased Perkin Elmer, Waltham, USA; host or cells: CHO cells (membrane suspensions)
T3 sequence (P20309 whole entry): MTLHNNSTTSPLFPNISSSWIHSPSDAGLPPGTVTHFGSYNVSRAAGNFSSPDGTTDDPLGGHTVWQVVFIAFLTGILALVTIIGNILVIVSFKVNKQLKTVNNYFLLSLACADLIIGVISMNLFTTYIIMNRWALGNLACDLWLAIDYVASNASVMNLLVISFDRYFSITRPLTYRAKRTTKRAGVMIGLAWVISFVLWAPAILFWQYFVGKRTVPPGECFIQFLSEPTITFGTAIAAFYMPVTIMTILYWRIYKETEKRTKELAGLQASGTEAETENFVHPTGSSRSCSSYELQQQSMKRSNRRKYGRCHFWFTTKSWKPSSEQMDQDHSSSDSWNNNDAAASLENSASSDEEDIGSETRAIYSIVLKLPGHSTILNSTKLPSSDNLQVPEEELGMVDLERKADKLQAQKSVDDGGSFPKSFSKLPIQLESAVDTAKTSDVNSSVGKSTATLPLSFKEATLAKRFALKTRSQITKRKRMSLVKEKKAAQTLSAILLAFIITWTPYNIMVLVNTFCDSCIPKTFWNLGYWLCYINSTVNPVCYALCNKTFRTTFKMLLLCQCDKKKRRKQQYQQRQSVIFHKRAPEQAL
Protocol: as §1, §2, §3, §4

[4] = target: muscarinic M2 receptor; conditions: [3H]QNB as reference tracer; ref 27 (Pei et al.); cited from earlier work
[5] = first series, n = 3, [3H]NMS 0.2 nM, read-out: Ki for M2

SMILES	Ki ([1]; Ki for M2, first series/experiment, n = 3, [3H]NMS 0.2 nM, average ± SD)	Ki ([1]; Ki for M2, second series/experiment, n = 4, [3H]NMS 0.13 nM, average ± SD)	Ki ([1]; Ki to M2 receptors, range over both experiments (abstract)) [nM]	selectivity ratio to the M1 ([2]; abstract) [fold]	selectivity ratio for M2 over M1 [2]	selectivity ratio to the M3 ([3]; abstract) [fold]	selectivity ratio for M2 over M3 [3]	Ki [4] [nM]	affinity for M2 (in words) [1]	Ki [1, 5] [nM]	affinity for M1 (in words) [2]	affinity for M3 (in words) [3]
CC(=O)OC1CC2CCCC1N2 (stereo not drawn) [5a, 6β-acetoxynortropane, reference compound]	88.1 nM and 88 nM	71.6 nM and 71 nM	70 to 90	65	approximately 65	70	~70	2.6				
Ic1ccc(COC2CC3CCCC2N3)cc1 (stereo not drawn) [5b, 6β-4′-iodobenzyl ether of 6β-nortropinol]					0.1		0.2		weak affinity	3000	weak affinity	weak affinity
O=C(OC1CC2CCCC1N2)c1ccc(I)cc1 (stereo not drawn) [5c, 6β-4′-iodobenzoate ester of 6β-nortropinol]					0.6		2.0		weak affinity	6800	weak affinity	weak affinity
